Data set [1] has as its target Sodium channel protein type 5 subunit alpha (Homo sapiens, UniProt Q14524). The experiment in a line: Inhibition of Nav1.5 (unknown origin) expressed in HEK293T cells at 10 uM by patch-clamp electrophysiology method. The data set is classed as cell-based. Background: The patch-clamp technique gives a direct electrical read-out from membranes.
Data set [2] has as its target T1, Voltage-gated inwardly rectifying potassium channel KCNH2 (Homo sapiens, UniProt Q12809). Description: Inhibition of human ERG expressed in Xenopus laevis oocytes at 10 uM by two-electrode voltage clamp method. The data set is classed as toxicity, cell-based. The conditions noted are these: oocyte.
Data set [3] is described as follows: Inhibition of human wild type SLACK expressed in CHO cells by Whole-cell automated patch clamp assay. The data set is classed as cell-based.
The target of data set [4] is T2, Potassium channel subfamily T member 1 (Homo sapiens, UniProt Q5JUK3).
T2 sequence (Q5JUK3 whole entry): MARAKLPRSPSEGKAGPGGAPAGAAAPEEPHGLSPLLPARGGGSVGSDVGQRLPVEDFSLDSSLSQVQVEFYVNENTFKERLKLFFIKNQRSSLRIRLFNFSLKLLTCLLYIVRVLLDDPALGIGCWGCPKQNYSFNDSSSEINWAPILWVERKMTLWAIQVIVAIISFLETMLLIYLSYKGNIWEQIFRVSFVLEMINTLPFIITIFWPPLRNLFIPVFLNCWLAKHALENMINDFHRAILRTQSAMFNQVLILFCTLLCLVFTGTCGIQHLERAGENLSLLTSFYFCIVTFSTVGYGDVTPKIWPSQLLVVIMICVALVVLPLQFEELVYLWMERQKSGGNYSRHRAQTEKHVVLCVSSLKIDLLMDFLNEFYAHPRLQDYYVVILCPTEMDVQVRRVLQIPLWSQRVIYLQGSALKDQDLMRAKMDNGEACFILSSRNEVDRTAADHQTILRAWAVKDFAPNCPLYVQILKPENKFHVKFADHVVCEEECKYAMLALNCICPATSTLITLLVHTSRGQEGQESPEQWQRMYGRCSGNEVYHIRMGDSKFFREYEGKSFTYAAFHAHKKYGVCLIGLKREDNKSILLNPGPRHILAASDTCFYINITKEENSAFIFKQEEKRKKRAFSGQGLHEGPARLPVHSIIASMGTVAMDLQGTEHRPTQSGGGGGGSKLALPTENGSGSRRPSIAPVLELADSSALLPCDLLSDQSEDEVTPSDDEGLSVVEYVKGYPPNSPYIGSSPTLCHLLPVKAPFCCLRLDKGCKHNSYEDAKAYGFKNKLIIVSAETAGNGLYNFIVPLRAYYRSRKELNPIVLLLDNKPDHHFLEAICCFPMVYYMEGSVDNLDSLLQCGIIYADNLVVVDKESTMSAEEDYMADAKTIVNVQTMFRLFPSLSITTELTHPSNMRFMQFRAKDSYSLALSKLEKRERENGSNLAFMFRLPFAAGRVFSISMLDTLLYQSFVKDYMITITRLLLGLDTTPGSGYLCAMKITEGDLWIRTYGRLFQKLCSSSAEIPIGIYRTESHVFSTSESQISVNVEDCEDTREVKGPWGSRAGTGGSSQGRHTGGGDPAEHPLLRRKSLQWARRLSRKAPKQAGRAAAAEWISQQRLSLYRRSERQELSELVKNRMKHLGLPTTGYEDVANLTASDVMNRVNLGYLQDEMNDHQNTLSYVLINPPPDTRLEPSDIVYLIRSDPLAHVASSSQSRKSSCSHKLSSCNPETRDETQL
The experiment in a line: Inhibition of wild type human KNa1.1 expressed in HEK293T cells by patch-clamp electrophysiology method. Format: cell-based.

For a further data set, the system named is HEK293. The experiment in a line: Cytotoxicity against HEK293 cells assessed as reduction in cell viability at 10 uM by CCK8 method relative to control. Format: toxicity, cell-based. The conditions noted are these: human, hek293, 10 µM.
Data set [5] in a line: Cmax in male ICR mouse at 10 mg/kg, iv administered as single dose measured upto 24 hrs by HPLC analysis. The data set is classed as ADME, organism-based. The conditions noted are these: in vivo.
A short description of data set [6]: Tmax in male ICR mouse at 10 mg/kg, iv administered as single dose measured upto 24 hrs by HPLC analysis. The data set is classed as ADME, organism-based. The conditions noted are these: in vivo.
Data set [7] can be described thus: Half life in male ICR mouse at 10 mg/kg, iv administered as single dose measured upto 24 hrs by HPLC analysis. Format: ADME, organism-based. The conditions noted are these: in vivo.
Data set [8] is described as follows: AUC (0 to t) in male ICR mouse at 10 mg/kg, iv administered as single dose measured upto 24 hrs by HPLC analysis. The data set is classed as ADME, organism-based. The conditions noted are these: in vivo.
Data set [9] in a line: Clearance in male ICR mouse at 10 mg/kg, iv administered as single dose measured upto 24 hrs by HPLC analysis. Format: ADME, organism-based. The conditions noted are these: in vivo.
Data set [10] can be described thus: MRT (0 to t) in male ICR mouse at 10 mg/kg, iv administered as single dose measured upto 24 hrs by HPLC analysis. Format: ADME, organism-based. The conditions noted are these: in vivo.
Data set [11] is described as follows: Volume of distribution at steady state in male ICR mouse at 10 mg/kg, iv administered as single dose measured upto 24 hrs by HPLC analysis. The data set is classed as ADME, organism-based. The conditions noted are these: in vivo, read-out: Vdss.
Data set [12] can be described thus: Cmax in male ICR mouse at 50 mg/kg, po administered as single dose measured upto 24 hrs by HPLC analysis. As to conditions: in vivo. The data set is classed as ADME, organism-based.
A short description of data set [13]: Tmax in male ICR mouse at 50 mg/kg, po administered as single dose measured upto 24 hrs by HPLC analysis. The data set is classed as ADME, organism-based. As to conditions: in vivo.
Data set [14] is described as follows: Half life in male ICR mouse at 50 mg/kg, po administered as single dose measured upto 24 hrs by HPLC analysis. The data set is classed as ADME, organism-based. The conditions noted are these: in vivo.
The nature of data set [15]: AUC (0 to t) in male ICR mouse at 50 mg/kg, po administered as single dose measured upto 24 hrs by HPLC analysis. The data set is classed as ADME, organism-based. As to conditions: in vivo.
Data set [16] is described as follows: MRT (0 to t) in male ICR mouse at 50 mg/kg, po administered as single dose measured upto 24 hrs by HPLC analysis. Format: ADME, organism-based. As to conditions: in vivo.
Data set [17] can be described thus: Oral bioavailability in male ICR mouse at 50 mg/kg administered as single dose measured upto 24 hrs by HPLC analysis. Format: ADME, organism-based. The conditions noted are these: in vivo.
The nature of data set [18]: Drug concentration in male ICR mouse brain at 10 mg/kg, iv measured after 0.5 hrs by LC-MS/MS analysis. The data set is classed as ADME, organism-based. The conditions noted are these: read-out: Ct.
A short description of data set [19]: Drug concentration in male ICR mouse plasma at 10 mg/kg, iv measured after 0.5 hrs by LC-MS/MS analysis. The data set is classed as ADME, organism-based.
The nature of data set [20]: Ratio of drug concentration in male ICR mouse brain to plasma at 10 mg/kg, iv measured after 0.5 hrs by LC-MS/MS analysis. The data set is classed as ADME, organism-based. The conditions noted are these: brain and plasma, read-out: BPR.
Data set [21] in a line: Drug concentration in male ICR mouse brain at 10 mg/kg, iv measured after 2 hrs by LC-MS/MS analysis. Format: ADME, organism-based. The conditions noted are these: read-out: Ct.
Data set [22] is described as follows: Drug concentration in male ICR mouse plasma at 10 mg/kg, iv measured after 2 hrs by LC-MS/MS analysis. Format: ADME, organism-based.
Data set [23] is described as follows: Ratio of drug concentration in male ICR mouse brain to plasma at 10 mg/kg, iv measured after 2 hrs by LC-MS/MS analysis. Format: ADME, organism-based. The conditions noted are these: brain and plasma, read-out: BPR.
Data set [24] can be described thus: Drug concentration in male ICR mouse brain at 50 mg/kg, po measured after 0.5 hrs by LC-MS/MS analysis. The data set is classed as ADME, organism-based. The conditions noted are these: read-out: Ct.
The nature of data set [25]: Drug concentration in male ICR mouse plasma at 50 mg/kg, po measured after 0.5 hrs by LC-MS/MS analysis. The data set is classed as ADME, organism-based.
The nature of data set [26]: Ratio of drug concentration in male ICR mouse brain to plasma at 50 mg/kg, po measured after 0.5 hrs by LC-MS/MS analysis. Format: ADME, organism-based. The conditions noted are these: brain and plasma, read-out: BPR.
Data set [27] is described as follows: Drug concentration in male ICR mouse brain at 50 mg/kg, po measured after 2 hrs by LC-MS/MS analysis. Format: ADME, organism-based. The conditions noted are these: read-out: Ct.
The nature of data set [28]: Drug concentration in male ICR mouse plasma at 50 mg/kg, po measured after 2 hrs by LC-MS/MS analysis. Format: ADME, organism-based.
The nature of data set [29]: Ratio of drug concentration in male ICR mouse brain to plasma at 50 mg/kg, po measured after 2 hrs by LC-MS/MS analysis. Format: ADME, organism-based. The conditions noted are these: brain and plasma, read-out: BPR.
A short description of data set [30]: Inhibition of KNa1.1 F327I mutant (unknown origin) expressed in HEK293T cells by patch-clamp electrophysiology method. The data set is classed as cell-based. As to conditions: Homo sapiens, HEK-293T.
For data set [31], the target named is T1, Voltage-gated inwardly rectifying potassium channel KCNH2. Description: Inhibition of human ERG expressed in Xenopus laevis oocytes by two-electrode voltage clamp method. Format: toxicity, cell-based, Oocyte. For orientation: In two-electrode clamp one electrode senses voltage and the other passes current.
Data set [32] can be described thus: Inhibition of human KNa1.1 Y796H mutant expressed in HEK293T cells by patch-clamp electrophysiology method. The data set is classed as cell-based. The conditions noted are these: HEK-293T.

T1 sequence (Q12809 whole entry): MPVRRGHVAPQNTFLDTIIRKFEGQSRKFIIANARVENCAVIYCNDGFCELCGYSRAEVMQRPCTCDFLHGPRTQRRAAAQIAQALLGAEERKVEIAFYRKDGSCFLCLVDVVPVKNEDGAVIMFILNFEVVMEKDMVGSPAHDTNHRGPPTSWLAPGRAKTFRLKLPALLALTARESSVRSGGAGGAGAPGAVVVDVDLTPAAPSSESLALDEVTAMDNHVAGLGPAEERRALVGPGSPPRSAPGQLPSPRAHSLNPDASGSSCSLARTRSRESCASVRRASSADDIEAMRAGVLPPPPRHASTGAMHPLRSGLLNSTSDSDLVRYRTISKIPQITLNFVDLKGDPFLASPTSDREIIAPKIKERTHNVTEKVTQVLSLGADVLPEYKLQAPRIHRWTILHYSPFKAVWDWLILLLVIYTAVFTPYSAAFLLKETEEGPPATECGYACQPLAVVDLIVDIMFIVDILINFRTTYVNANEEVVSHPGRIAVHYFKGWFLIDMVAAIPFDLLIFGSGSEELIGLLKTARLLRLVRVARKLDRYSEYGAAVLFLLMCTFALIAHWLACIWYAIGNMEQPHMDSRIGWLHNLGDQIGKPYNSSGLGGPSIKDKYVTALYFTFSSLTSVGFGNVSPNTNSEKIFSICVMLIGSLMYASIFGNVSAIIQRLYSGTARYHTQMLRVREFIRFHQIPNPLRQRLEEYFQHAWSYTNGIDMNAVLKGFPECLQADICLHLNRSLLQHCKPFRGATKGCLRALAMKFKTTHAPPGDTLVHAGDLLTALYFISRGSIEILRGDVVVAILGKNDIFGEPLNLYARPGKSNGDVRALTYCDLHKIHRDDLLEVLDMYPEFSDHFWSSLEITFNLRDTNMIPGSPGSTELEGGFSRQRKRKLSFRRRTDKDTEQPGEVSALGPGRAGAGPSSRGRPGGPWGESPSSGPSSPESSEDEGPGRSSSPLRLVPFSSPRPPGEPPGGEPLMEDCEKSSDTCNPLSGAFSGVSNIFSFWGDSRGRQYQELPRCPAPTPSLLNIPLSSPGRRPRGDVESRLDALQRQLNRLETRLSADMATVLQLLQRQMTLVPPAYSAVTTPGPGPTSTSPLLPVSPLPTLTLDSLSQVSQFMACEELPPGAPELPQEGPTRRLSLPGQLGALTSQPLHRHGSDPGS
Sequence of Sodium channel protein type 5 subunit alpha (Q14524 whole entry): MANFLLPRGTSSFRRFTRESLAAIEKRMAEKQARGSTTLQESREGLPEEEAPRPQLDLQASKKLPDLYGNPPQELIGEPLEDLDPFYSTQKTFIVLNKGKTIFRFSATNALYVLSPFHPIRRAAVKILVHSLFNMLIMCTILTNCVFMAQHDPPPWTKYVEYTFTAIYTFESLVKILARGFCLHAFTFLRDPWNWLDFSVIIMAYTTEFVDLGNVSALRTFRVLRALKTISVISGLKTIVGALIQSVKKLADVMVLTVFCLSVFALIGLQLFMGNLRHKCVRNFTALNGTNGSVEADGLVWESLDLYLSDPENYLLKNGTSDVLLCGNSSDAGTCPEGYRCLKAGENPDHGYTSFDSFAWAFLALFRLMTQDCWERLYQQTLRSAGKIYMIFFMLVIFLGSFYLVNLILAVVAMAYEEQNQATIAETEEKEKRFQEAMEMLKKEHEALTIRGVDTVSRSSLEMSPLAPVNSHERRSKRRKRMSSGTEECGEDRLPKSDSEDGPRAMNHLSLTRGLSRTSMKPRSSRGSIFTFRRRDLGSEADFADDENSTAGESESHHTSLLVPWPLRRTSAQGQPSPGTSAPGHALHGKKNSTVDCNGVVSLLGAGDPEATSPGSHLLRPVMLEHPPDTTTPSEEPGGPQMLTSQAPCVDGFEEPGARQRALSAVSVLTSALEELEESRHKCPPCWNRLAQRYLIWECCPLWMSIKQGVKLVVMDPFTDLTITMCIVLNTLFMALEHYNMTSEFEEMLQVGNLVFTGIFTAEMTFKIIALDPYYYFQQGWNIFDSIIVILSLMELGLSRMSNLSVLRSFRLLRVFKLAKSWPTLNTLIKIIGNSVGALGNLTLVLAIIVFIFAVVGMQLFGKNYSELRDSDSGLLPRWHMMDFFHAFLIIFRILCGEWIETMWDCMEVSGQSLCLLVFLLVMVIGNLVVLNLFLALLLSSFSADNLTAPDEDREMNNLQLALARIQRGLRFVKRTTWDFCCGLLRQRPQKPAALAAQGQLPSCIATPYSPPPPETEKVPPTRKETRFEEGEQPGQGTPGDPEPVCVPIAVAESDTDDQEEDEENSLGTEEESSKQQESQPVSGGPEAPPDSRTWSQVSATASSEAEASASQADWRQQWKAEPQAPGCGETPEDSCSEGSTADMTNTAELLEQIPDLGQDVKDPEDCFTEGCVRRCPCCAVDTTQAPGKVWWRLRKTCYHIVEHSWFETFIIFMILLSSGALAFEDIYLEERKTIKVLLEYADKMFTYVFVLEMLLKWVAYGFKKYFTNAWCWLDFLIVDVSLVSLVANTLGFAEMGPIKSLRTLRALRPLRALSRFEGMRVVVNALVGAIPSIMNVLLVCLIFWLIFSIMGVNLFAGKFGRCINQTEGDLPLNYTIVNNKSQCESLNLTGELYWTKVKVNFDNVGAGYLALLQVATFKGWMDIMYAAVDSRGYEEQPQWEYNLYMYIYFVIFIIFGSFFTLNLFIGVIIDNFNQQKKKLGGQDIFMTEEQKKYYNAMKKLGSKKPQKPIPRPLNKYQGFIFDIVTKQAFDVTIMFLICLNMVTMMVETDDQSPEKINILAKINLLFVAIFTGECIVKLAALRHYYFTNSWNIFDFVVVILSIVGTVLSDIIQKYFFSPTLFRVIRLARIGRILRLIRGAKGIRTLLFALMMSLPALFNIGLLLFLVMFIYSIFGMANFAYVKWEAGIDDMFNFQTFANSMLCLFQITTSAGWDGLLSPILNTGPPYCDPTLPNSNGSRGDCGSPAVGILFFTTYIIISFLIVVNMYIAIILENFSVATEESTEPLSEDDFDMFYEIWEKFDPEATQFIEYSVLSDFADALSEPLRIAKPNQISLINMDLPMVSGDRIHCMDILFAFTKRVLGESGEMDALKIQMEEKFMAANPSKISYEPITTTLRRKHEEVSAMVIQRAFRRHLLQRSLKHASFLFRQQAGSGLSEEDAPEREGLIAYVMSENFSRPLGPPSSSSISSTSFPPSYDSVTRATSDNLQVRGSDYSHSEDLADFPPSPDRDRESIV

On to `NCCNCCCc1c(OCc2ccc(Br)cc2)ccc2ccccc12`, for which the “inhibition (INH)” value in [1] and in data set [2] was “Not Active” in each case.
In the case of `CCn1c2c(c3ccccc31)CN(CCCCNCc1c(OCc3ccc(F)cc3)ccc3ccccc13)CC2`, the “inhibition (INH)” value in data set [1] is “Not Active”.
One may read the IC50 as the concentration needed to halve the response being measured. A lower IC50 goes with higher potency. For the molecule `Cc1ccc2cccc(S(=O)(=O)N3CC(c4nc(-c5ccc(F)cc5)no4)C3)c2n1`, in data set [3], it took 0.32 µM to reach half-maximal inhibition (IC50). This counts as sub-micromolar.
Usually Cmax stands for the highest concentration seen after dosing. By Tmax is commonly meant the time from dosing to the highest level. Usually half-life stands for the time needed for the level to fall by half in the phase considered. Lower therefore signals rapid decline. As usually defined, the AUC(0-t) is exposure summed from dosing to a finite time, without extrapolation to infinity. In general, clearance refers to a measure of how efficiently the substance is removed, as volume per time. A high value points to efficient removal. What is called MRT last is a mean duration of stay, worked out from the concentration-time curve. For orientation: bioavailability means dose-corrected exposure relative to a reference, in per cent. Low values mean little systemic uptake, high ones much systemic uptake. Turning to `c1ccc(COc2ccc3ccccc3c2CCC2CCNCC2)cc1`, the IC50 in data set [4] amounted to 3.43 µM; in data set [30], 24.2 µM; in [31], 90.2 µM; in data set [32] it was 0.4 µM. In the data set with HEK293, the Activity is listed as 99.63%. In addition, the Cmax is 2180 ng/mL in data set [5] and 1290 ng/mL in [12]. The Tmax in [6] is 4.8 min; in data set [13] it was 0.5 h. For the same molecule, the half-life in data set [7] was 2.46 h; in data set [14], 3.11 h. In addition, the AUC(0-t) at 24 h worked out at 4550 ng·h/mL in data set [8] and 7450 ng·h/mL in data set [15]. In data set [9], this molecule gave a clearance of 36.6 mL/min/kg. The MRT last at 24 h in data set [10] was determined as 3.12 h; in [16], 4.96 h. Further, the Vd in data set [11] is 6.91 L/kg. This molecule also registered a bioavailability in data set [17] of 32.8%. The concentration at 0.5 h in data set [18] amounted to 8010 ng/mL; in data set [19], 1030 ng/mL; in data set [24], 604 ng/mL; in [25] it was 1290 ng/mL. The Kp at 0.5 h in [20] stood at 7.8; in [26], 0.47. The concentration at 2 h was 3330 ng/mL in [21], 605 ng/mL in [22], 1200 ng/mL in data set [27] and 893 ng/mL in data set [28]. In addition, the Kp at 2 h is 5.51 in data set [23] and 1.34 in [29]. Moreover, the “inhibition (INH)” value in data set [1] and in data set [2] was “Not Active” throughout.
With `CN1CCC(NCc2c(OCc3ccc(F)cc3)ccc3ccccc23)CC1`, in the data set on HEK293, the Activity is 53.17%.

The values above are taken from ChEMBL document CHEMBL6127116, “Discovery of Potent and Selective Blockers Targeting the Epilepsy-Associated KNa1.1 Channel” (J Med Chem, 2024).
